Where a SMILES comes first, the peptide text is derived from it.
Legend:
[1] = In vivo toxicity after intravenous injection in mice (behavior, survival); design: species or system mice BalB/c
Protocol: This approach was developed in mice BalB/c between 6-8 old. The mice were injected intravenously with 50 μg of peptide in 0.1 ml [2.5 mg/kg of body weight] or saline solution as a control. The behavior of animals was observed each 4 hours during 24 h. Survival was followed for one week. Blood was collected for TNF-α quantification from the retroorbital sinus at the time 0 h. 6 h, 24 h and 48 h in the control group and peptide treated-mice. The concentration of TNF-α in mouse serum was determined using a specific ELISA kindly provided by Dr. W. Buurman (University Hospital Maastrich, The Netherlands).

[2] = test system: bovine enterovirus on cell line MDBK; test: Antiviral effect: inhibition of the cytopathic effect of bovine enterovirus on cell line MDBK; type: cell-based; details: 10 μM, 20 μM and 40 μM; FIG. 5
Protocol: Determination of the antiviral activity was estimate by means of the inhibition of the cytopathic effect produced by a virus on cell line MDBK, essentially as is described in the example 1. The cells used in this approach were MDBK a kidney normal bovine cells line [ATCC No. 6071], which are infected with […] of bovine enterovirus. Increasing quantities of LALF peptide were used in order to induced protection in the-cells: 10 μM, 20 μM and 40 μM. In this case serial dilution's of human α-IFN 70 000 IU/ml (MRI, Freeze-dried Reference Human Recombinant Alpha Interferon) was used as standard in order to define unit of antiviral activity. One unit of antiviral activity is defining as the quantity of IFN able to produce a 50% inhibition of the viral replication.
The cells were treated with increasing quantities of peptide during 18 hours. Afterwards, the cells were challenged with a bovine enterovirus. Antiviral activity is referred as U/ml α-IFN.

## CC[C@H](C)[C@H](NC(=O)[C@H](CCCNC(=N)N)NC(=O)[C@H](Cc1ccc(O)cc1)NC(=O)[C@H](Cc1c[nH]cn1)NC(=O)[C@@H](N)CS)C(=O)N[C@@H](CCCCN)C(=O)N1CCC[C@H]1C(=O)N[C@H](C(=O)N[C@@H](Cc1ccccc1)C(=O)N[C@@H](CCCNC(=N)N)C(=O)N[C@@H](CCCNC(=N)N)C(=O)N[C@@H](CC(C)C)C(=O)N[C@@H](CCCCN)C(=O)N[C@@H](Cc1c[nH]c2ccccc12)C(=O)N[C@@H](CCCCN)C(=O)N[C@@H](Cc1ccc(O)cc1)C(=O)N[C@@H](CCCCN)C(=O)NCC(=O)N[C@@H](CCCCN)C(=O)N[C@@H](Cc1ccccc1)C(=O)N[C@@H](Cc1c[nH]c2ccccc12)C(=O)N[C@@H](CS)C(=O)O)[C@@H](C)O [LALF] (H-CHYRIKPTFRRLKWKYKGKFWC-OH)
[1]; 50 μg [2.5 mg/kg] intravenously
  Toxicity in vivo (in words): not toxic in vivo
[1]; 50 μg in 0.1 ml [2.5 mg/kg] intravenously, followed one week
  Survival after intravenous injection (in words): All mice [10 animals/group] survivor beyond of one week
[2]
  Protection of cell line MDBK against bovine enterovirus (in words): able to induce protection in the cell line MDBK in a doses dependent manner

Reference: patent publication US6632793B1, “Immunological activity for a peptide of the limulus anti-LPS factor” (Centro de Ingenieria Genetica y Biotecnologia, priority 1997, dated 2003)
